From patent US20250205344A1, “2,4-DIOXOTETRAHYDROPYRIMIDINYL DERATIVES AS DEGRONS IN PROTACS” (GLAXOSMITHKLINE INTELLECTUAL PROPERTY DEVELOPMENT LIMITED, priority 2022, published 2025)
Where a name gives a salt, the structure may show the parent alone.

Target: T1, Full length Cereblon protein (6His tev Cereblon/6His tev DDB1ΔBPB) (Homo sapiens, UniProt Q96SW2)
T1 construct: Full length Cereblon protein (6His tev Cereblon/6His tev DDB1ΔBPB) was expressed and purified from E. coli; made in house; host or cells: E. coli
Assay: Cereblon Binding Assay (TR-FRET)
Details: 5 nM protein, 50 nM Alexa647-lenalidomide ligand, read-out: Mean pIC50 (converted)
Experimental: Full length Cereblon protein (6His tev Cereblon/6His tev DDB1ΔBPB) was expressed and purified from E. coli to monitor compound binding. […] A Thermo Scientific Multidrop Combi was used to dispense 5 μL of 10 nM protein in assay buffer of 50 mM
HEPES, 150 mM NaCl, 5% glycerol, 1 mM DTT and 1 mM CHAPS, pH 7.4, in the presence of 100 nM fluorescent ligand (Final assay concentrations of 5 nM protein and 50 nM ligand). After equilibrating for 15 min in the dark at room temperature a 5 μL addition was made of 2 nM europium chelate labelled anti-6His antibody (Perkin Elmer, W1024, AD0111) in assay buffer (1 nM FAC). […] TR-FRET ratio data was normalised to high (DMSO) and low (reaction in the absence of protein) controls and pIC50 values determined for each of the compounds tested by fitting the fluorescence ratio data to a four parameter model:
[formula] • where ‘a’ is the minimum, ‘b’ is the maximum, ‘c’ is the pIC50 and ‘d’ is the Hill slope.

T1 sequence (Q96SW2 whole entry, stated change not applied): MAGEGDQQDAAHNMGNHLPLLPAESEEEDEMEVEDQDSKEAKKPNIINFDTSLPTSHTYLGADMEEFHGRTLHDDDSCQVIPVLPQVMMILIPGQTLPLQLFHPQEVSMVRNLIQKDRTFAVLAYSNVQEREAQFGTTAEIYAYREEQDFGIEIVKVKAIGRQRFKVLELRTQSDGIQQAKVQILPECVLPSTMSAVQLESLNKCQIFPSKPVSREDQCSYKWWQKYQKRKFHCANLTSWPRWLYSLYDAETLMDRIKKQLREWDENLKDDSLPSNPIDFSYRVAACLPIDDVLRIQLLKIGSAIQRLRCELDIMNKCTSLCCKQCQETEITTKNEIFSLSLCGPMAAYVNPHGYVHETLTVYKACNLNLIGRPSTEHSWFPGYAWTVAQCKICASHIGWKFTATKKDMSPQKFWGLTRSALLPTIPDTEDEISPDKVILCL

| IC50 [nM] | Structure (SMILES) |
| --- | --- |
| 245 | O=C1CCN(c2cc(C(F)(F)F)cc3c2cnn3C2CCNCC2)C(=O)N1 [ECB30, 1-(1-(piperidin-4-yl)-6-(trifluoromethyl)-1H-indazol-4-yl)dihydropyrimidine-2,4(1H,3H)-dione] |
| 35.5 | COCCn1ccc2c(N3CCC(=O)NC3=O)cccc21 [ECB48, 1-(1-(2-Methoxyethyl)-1H-indol-4-yl)dihydropyrimidine-2,4(1H,3H)-dione] |
| 2.51 | CC(C)n1ccc2c(N3CCC(=O)NC3=O)cc(C(=O)N3CCNCC3)cc21 [ECB11, 1-(1-isopropyl-6-(piperazine-1-carbonyl)-1H-indol-4-yl)dihydropyrimidine-2,4(1H,3H)-dione] |
| 55 | O=C1CCN(c2cc(C(F)(F)F)cc3c2ccn3C2CCNCC2)C(=O)N1 [ECB37, 1-(1-(piperidin-4-yl)-6-(trifluoromethyl)-1H-indol-4-yl)dihydropyrimidine-2,4(1H,3H)-dione] |
| 31.6 | CC(C)n1ccc2c(N3CCC(=O)NC3=O)cc(C(=O)N(C)CC3CCNCC3)cc21 [ECB16, 4-(2,4-Dioxotetrahydropyrimidin-1(2H)-yl)-1-isopropyl-N-methyl-N-(piperidin-4-ylmethyl)-1H-indole-6-carboxamide] |
| 200 | O=C1CCN(c2cc(F)cc3c2cnn3C2CCNCC2)C(=O)N1 [ECB10, 1-(6-Fluoro-1-(piperidin-4-yl)-1H-indazol-4-yl)dihydropyrimidine-2,4(1H,3H)-dione] |
| 229 | O=C1CCN(c2nccc3c2ccn3C2CCNCC2)C(=O)N1 [ECB25, 1-(1-(piperidin-4-yl)-1H-pyrrolo[3,2-c]pyridin-4-yl)dihydropyrimidine-2,4(1H,3H)-dione] |
| 25.1 | CC(C)n1ccc2c(N3CCC(=O)NC3=O)cc(C(=O)N(C)C3CCNCC3)cc21 [ECB15, 4-(2,4-Dioxotetrahydropyrimidin-1(2H)-yl)-1-isopropyl-N-methyl-N-(piperidin-4-yl)-1H-indole-6-carboxamide] |
| 575 | Cn1ccc2c(N3CCC(=O)NC3=O)nccc21 [ECB47, 1-(1-Methyl-1H-pyrrolo[3,2-c]pyridin-4-yl)dihydropyrimidine-2,4(1H,3H)-dione] |

The next lines start with the compound.

| Structure (SMILES) | IC50 [nM] |
| --- | --- |
| O=C1CCN(c2nccc3c2cnn3C2CCNCC2)C(=O)N1 [ECB7, 1-(1-(piperidin-4-yl)-1H-pyrazolo[4,3-c]pyridin-4-yl)dihydropyrimidine-2,4(1H,3H)-dione] | 79.4 |
| Cn1ccc2c(N3CCC(=O)NC3=O)cccc21 [ECB45, 1-(1-Methyl-1H-indol-4-yl)dihydropyrimidine-2,4(1H,3H)-dione] | 100 |
| CCn1ccc2c(N3CCC(=O)NC3=O)cccc21 [ECB50, 1-(1-Ethyl-1H-indol-4-yl)dihydropyrimidine-2,4(1H,3H)-dione] | 24 |
| O=C1CCN(c2cncc3c2ccn3C2CCNCC2)C(=O)N1 [ECB6, 1-(1-(piperidin-4-yl)-1H-pyrrolo[2,3-c]pyridin-4-yl)dihydropyrimidine-2,4(1H,3H)-dione] | 25.1 |
| Cn1ncc2c(N3CCC(=O)NC3=O)cccc21 [ECB46, 1-(1-Methyl-1H-indazol-4-yl)dihydropyrimidine-2,4(1H,3H)-dione] | 309 |
| O=C1CCN(c2cccc3c2ccn3C[C@]2(F)CCCNC2)C(=O)N1 [ECB29, (S)-1-(1-((3-fluoropiperidin-3-yl)methyl)-1H-indol-4-yl)dihydropyrimidine-2,4(1H,3H)-dione] | 120 |
| Cc1ccc(N2CCC(=O)NC2=O)c2ccn(C)c12 [ECB49, 1-(1,7-Dimethyl-1H-indol-4-yl)dihydropyrimidine-2,4(1H,3H)-dione] | 20 |
| O=C1CCN(c2cccc3c2cnn3C2CCNCC2)C(=O)N1 [ECB18, 1-(1-(Piperidin-4-yl)-1H-indazol-4-yl)dihydropyrimidine-2,4(1H,3H)-dione] | 10 |
| O=C1CCN(c2cncc3c2cnn3C2CCNCC2)C(=O)N1 [ECB8, 1-(1-(Piperidin-4-yl)-1H-pyrazolo[3,4-c]pyridin-4-yl)dihydropyrimidine-2,4(1H,3H)-dione] | 251 |
| O=C1CCN(c2ncnc3c2ccn3C2CCNCC2)C(=O)N1 [ECB17, 1-(7-(piperidin-4-yl)-7H-pyrrolo[2,3-d]pyrimidin-4-yl)dihydropyrimidine-2,4(1H,3H)-dione] | 316 |
| O=C1CCN(c2ccnc3c2cnn3C2CCNCC2)C(=O)N1 [ECB19, 1-(1-(piperidin-4-yl)-1H-pyrazolo[3,4-b]pyridin-4-yl)dihydropyrimidine-2,4(1H,3H)-dione] | 380 |
| O=C1CCN(c2cc(Cl)cc3c2ccn3C2CCNCC2)C(=O)N1 [ECB9, 1-(6-Chloro-1-(piperidin-4-yl)-1H-indol-4-yl)dihydropyrimidine-2,4(1H,3H)-dione] | 7.94 |
| O=C1CCN(c2cc(F)cc3c2ccn3C2CCNCC2)C(=O)N1 [ECB44, 1-(6-Fluoro-1-(piperidin-4-yl)-1H-indol-4-yl)dihydropyrimidine-2,4(1H,3H)-dione] | 33.1 |

Target: T2, Androgen Receptor (Homo sapiens, UniProt P10275, T878A)
T2 construct: the AR gene was modified, using CRISPR/Cas9 editing, so the expressed AR protein included an 11 amino acid HiBiT tag; endogenous in cells; host or cells: clonal LnCaP-derived line, AR gene edited by CRISPR/Cas9
Assay: Androgen Receptor Degradation Assay (Nano-Glo HiBiT)
Type: cell-based
Details: LNCaP, 18 h, HiBiT-tagged AR in human LnCaP cells, read-out: mean asymptote max
Method in brief: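 LnCaP cells with CRISPR-knocked-in N-terminal HiBiT-tagged AR (10,000/well) treated 18 h at 37 °C with PROTACs over 11 threefold concentrations; lytic HiBiT luminescence normalised to DMSO (0%) and cell-free (100%) controls. Relative DC50 = 4-parameter fit inflection; absolute DC50 = 50% degradation interpolation; Dmax = maximum observed degradation.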

T2 sequence (P10275 whole entry T878A): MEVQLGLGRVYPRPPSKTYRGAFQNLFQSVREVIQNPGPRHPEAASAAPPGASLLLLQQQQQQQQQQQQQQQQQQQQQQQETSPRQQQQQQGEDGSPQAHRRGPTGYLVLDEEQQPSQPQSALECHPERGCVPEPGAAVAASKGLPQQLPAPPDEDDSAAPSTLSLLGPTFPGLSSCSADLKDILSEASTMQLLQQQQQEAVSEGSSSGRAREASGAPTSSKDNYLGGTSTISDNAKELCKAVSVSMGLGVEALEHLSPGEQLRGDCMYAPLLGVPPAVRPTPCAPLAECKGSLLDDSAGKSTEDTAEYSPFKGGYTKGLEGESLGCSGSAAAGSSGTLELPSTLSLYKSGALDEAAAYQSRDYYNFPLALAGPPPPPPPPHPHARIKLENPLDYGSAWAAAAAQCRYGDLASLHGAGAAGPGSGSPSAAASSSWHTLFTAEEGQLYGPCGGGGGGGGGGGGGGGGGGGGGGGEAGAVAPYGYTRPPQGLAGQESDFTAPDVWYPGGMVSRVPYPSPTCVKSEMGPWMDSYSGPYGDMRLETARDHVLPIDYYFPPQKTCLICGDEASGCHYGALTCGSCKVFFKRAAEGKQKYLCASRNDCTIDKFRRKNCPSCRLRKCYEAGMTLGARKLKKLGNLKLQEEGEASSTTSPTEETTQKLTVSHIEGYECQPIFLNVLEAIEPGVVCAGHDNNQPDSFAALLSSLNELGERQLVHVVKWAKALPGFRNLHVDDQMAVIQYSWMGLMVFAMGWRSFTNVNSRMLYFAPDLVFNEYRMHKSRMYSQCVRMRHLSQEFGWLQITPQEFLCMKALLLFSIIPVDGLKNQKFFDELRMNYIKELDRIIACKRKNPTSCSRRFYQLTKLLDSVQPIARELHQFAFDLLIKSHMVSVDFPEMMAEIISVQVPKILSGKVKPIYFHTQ
T2 sequence (Q96SW2 whole entry partner): as the sequence (Q96SW2 whole entry, stated change not applied) above
T2 sequence (Q16531 whole entry partner): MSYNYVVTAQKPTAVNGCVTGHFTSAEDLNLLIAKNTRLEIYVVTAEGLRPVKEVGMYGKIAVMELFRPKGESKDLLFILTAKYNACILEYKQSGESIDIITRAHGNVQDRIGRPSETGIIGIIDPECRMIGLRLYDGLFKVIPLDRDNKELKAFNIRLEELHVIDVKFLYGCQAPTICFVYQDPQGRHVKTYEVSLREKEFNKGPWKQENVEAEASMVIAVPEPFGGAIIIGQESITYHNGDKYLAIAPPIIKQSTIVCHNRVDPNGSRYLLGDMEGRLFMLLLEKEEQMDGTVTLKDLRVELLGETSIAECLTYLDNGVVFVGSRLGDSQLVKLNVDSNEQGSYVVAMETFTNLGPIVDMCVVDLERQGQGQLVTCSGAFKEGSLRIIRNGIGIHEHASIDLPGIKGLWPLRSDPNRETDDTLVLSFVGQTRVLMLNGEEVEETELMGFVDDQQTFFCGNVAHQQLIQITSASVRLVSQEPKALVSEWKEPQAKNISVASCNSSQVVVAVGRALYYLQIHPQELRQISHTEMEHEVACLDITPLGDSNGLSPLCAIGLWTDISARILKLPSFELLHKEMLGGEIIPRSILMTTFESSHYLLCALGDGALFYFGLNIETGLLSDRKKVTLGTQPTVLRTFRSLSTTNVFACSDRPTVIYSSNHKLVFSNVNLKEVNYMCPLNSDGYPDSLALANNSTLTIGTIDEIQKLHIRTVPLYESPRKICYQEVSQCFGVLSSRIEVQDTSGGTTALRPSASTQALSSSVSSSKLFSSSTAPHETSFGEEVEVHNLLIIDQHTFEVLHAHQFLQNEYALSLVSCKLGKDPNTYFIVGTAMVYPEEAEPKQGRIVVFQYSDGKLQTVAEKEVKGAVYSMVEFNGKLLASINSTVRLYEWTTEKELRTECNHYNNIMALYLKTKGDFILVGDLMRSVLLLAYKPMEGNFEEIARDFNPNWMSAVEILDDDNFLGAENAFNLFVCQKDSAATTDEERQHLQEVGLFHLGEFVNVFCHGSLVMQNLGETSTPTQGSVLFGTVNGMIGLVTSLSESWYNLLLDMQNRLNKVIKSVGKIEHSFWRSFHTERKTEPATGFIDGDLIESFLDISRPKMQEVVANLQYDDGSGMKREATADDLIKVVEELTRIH

| Dmax [%] | Structure (SMILES) |
| --- | --- |
| ≥ 50 | N#Cc1ccc(O[C@H]2CC[C@H](NC(=O)c3ccc(N4CCC(CN5CCC(Cn6ccc7c(N8CCC(=O)NC8=O)cccc76)CC5)CC4)nn3)CC2)cc1Cl [EAR26, N-((1r,4r)-4-(3-Chloro-4-cyanophenoxy)cyclohexyl)-6-(4-((4-((4-(2,4-dioxotetrahydropyrimidin-1(2H)-yl)-1H-indol-1-yl)methyl)piperidin-1-yl)methyl)piperidin-1-yl)pyridazine-3-carboxamide hydrochloride] |
| ≥ 50 | N#Cc1ccc(O[C@H]2CC[C@H](NC(=O)c3ccc(N4CCC(CN5CCC(n6ncc7c(N8CCC(=O)NC8=O)cncc76)CC5)CC4)nn3)CC2)cc1Cl [EAR53, N-((1r,4r)-4-(3-Chloro-4-cyanophenoxy)cyclohexyl)-6-(4-((4-(4-(2,4-dioxotetrahydropyrimidin-1(2H)-yl)-1H-pyrazolo[3,4-c]pyridin-1-yl)piperidin-1-yl)methyl)piperidin-1-yl)pyridazine-3-carboxamide hydrochloride] |

The next lines start with the compound.

| Structure (SMILES) | Dmax [%] |
| --- | --- |
| N#Cc1ccc(O[C@H]2CC[C@H](NC(=O)c3ccc(O[C@H]4CCN(C(=O)CN5CCC(n6ccc7c(N8CCC(=O)NC8=O)cccc76)CC5)C4)nn3)CC2)cc1Cl [EAR188, N-((1r,4S)-4-(3-Chloro-4-cyanophenoxy)cyclohexyl)-6-(((S)-1-(2-(4-(4-(2,4-dioxotetrahydropyrimidin-1(2H)-yl)-1H-indol-1-yl)piperidin-1-yl)acetyl)pyrrolidin-3-yl)oxy)pyridazine-3-carboxamide] | ≥ 50 |
| CC(C)n1ccc2c(N3CCC(=O)NC3=O)cc(C(=O)N3CCN(CCCCOc4ccc(N5C(=S)N(c6ccc(C#N)c(C(F)(F)F)c6)C(=O)C5(C)C)cc4)CC3)cc21 [EAR92, 4-(3-(4-(4-(4-(4-(2,4-Dioxotetrahydropyrimidin-1(2H)-yl)-1-isopropyl-1H-indole-6-carbonyl)piperazin-1-yl)butoxy)phenyl)-4,4-dimethyl-5-oxo-2-thioxoimidazolidin-1-yl)-2-(trifluoromethyl)benzonitrile] | ≥ 50 |
| N#Cc1ccc(O[C@H]2CC[C@H](NC(=O)c3ccc(N4CCC[C@@H](CN5CCC(n6ncc7c(N8CCC(=O)NC8=O)cccc76)CC5)C4)nn3)CC2)cc1Cl [EAR153, N-((1r,4S)-4-(3-Chloro-4-cyanophenoxy)cyclohexyl)-6-((S)-3-((4-(4-(2,4-dioxotetrahydropyrimidin-1(2H)-yl)-1H-indazol-1-yl)piperidin-1-yl)methyl)piperidin-1-yl)pyridazine-3-carboxamide, formic acid salt] | ≥ 50 |
| CC1(C)C(=O)N(c2ccc(C#N)c(C(F)(F)F)c2)C(=S)N1c1ccc(OCCCN2CCC(n3ccc4c(N5CCC(=O)NC5=O)cccc43)CC2)cc1 [EAR103, 4-(3-(4-(3-(4-(4-(2,4-Dioxotetrahydropyrimidin-1(2H)-yl)-1H-indol-1-yl)piperidin-1-yl)propoxy)phenyl)-4,4-dimethyl-5-oxo-2-thioxoimidazolidin-1-yl)-2-(trifluoromethyl)benzonitrile formate] | ≥ 50 |
| N#Cc1ccc(O[C@H]2CC[C@H](NC(=O)c3ccc(N4CC(CN5CCC(n6ccc7c(N8CCC(=O)NC8=O)cccc76)CC5)C4)nn3)CC2)cc1Cl [EAR72, N-((1r,4r)-4-(3-Chloro-4-cyanophenoxy)cyclohexyl)-6-(3-((4-(4-(2,4-dioxotetrahydropyrimidin-1(2H)-yl)-1H-indol-1-yl)piperidin-1-yl)methyl)azetidin-1-yl)pyridazine-3-carboxamide hydrochloride] | ≥ 50 |
| N#Cc1ccc(O[C@H]2CC[C@H](NC(=O)c3cnc(N4CCC(CN5CCC(n6ncc7c(N8CCC(=O)NC8=O)nccc76)CC5)CC4)cn3)CC2)cc1Cl [EAR203, N-((1r,4r)-4-(3-Chloro-4-cyanophenoxy)cyclohexyl)-5-(4-((4-(4-(2,4-dioxotetrahydropyrimidin-1(2H)-yl)-1H-pyrazolo[4,3-c]pyridin-1-yl)piperidin-1-yl)methyl)piperidin-1-yl)pyrazine-2-carboxamide hydrochloride] | ≥ 50 |
